Source: patent US6828316B2, “Diamide compound and medicine containing the same” (Kowa Co., Ltd., priority 1996, dated 2004)
Structures can show the parent of a compound that is named as a salt.

These compounds were tested on production of IgE antibody (assay: Evaluation of inhibitory effect on production of IgE antibody). Settings: B-cell; test agent at a concentration of 10^−5 M; mouse (Balb/C) spleen B cells cultured with LPS then mouse IL-4; IgE in culture supernatant by ELISA.
Format: cell-based
Protocol: Evaluation of Inhibitory Effect on Production of IgE Antibody
A spleen was enucleated from a mouse (Balb/C, male, aged 8 weeks) and shredded in 0.3% BSA/HBSS to prepare single cells by means of a 200-mesh screen. Further, the single cells were hemolyzed by 0.75% ammonium chloride-17 mM Tris solution to prepare a splenocyte suspension (1×10^7/ml) using RPMI 1640 medium/25 mM HPES/0.3% BSA. After the suspension was reacted with a mouse anti-mouse Thy-1.2 monoclonal antibody at 4° C. for 1 hour, the reaction mixture was centrifuged, and the sediment cells were suspended again (1×10^7/ml, RPMI/HPES/BAS). After the suspension was then reacted with a low-cytotoxic rabbit complement (product of Cedarlane Co.) at 37° C. for 1 hour, killed cells were removed by specific gravity centrifugation using lympholyte M (product of Cedarlane Co.) to obtain a B cell fraction as viably cells.
After B cells (10^5/0.2 ml/well) were cultured for a day together with LPS (E. coli 026:B6, product of DIFCO Co.) using a 96-well plate, mouse IL-4 (product of Genzyme Co.) was added to conduct culture further for 7 days.
Each test agent was added on the first day of the culture, and the amount of IgE in a culture supernatant was measured by ELISA, thereby calculating out the inhibitory effect of the agent on the production of an IgE antibody.
`O=C(/C=C/C=C/c1ccccc1)N1CCCN(C(=O)/C=C/C=C/c2ccccc2)CC1` [Example 1, 1,4-bis[5-phenylpenta-(2E,4E)-dienoyl]hexahydro-1,4-diazepine] gave an inhibition at 10 µM of 100%. `COc1cc(/C=C/C=C/C(=O)N2CCCN(C(=O)/C=C/C=C/c3cc(OC)c(OC)c(OC)c3)CC2)cc(OC)c1OC` [Example 17, 1,4-bis[5-(3,4,5-trimethoxyphenyl)-penta-(2E,4E)-dienoyl]hexahydro-1,4-diazepine] gave an inhibition at 10 µM of 100%. `O=C(/C=C/C=C/c1ccccn1)N1CCCN(C(=O)/C=C/C=C/c2ccccn2)CC1` [Example 19, 1,4-bis[5-(2-pyridyl)penta-(2E,4E)-dienoyl]hexahydro-1,4-diazepine] was tested, and the inhibition at 10 µM was 20%. Work on `O=C(/C=C/C=C/c1cccc2cccnc12)N1CCCN(C(=O)/C=C/C=C/c2cccc3cccnc23)CC1` [Example 25, 1,4-bis[5-(8-quinolyl)penta-(2E,4E)-dienoyl]hexahydro-1,4-diazepine] yielded an inhibition at 10 µM of 100%. Compound `COc1cc(/C=C/C=C/C(=O)N2CCN(C(=O)/C=C/C=C/c3cc(OC)c(OC)c(OC)c3)CC2)cc(OC)c1OC` [Example 29, 1,4-bis[5-(3,4,5-trimethoxyphenyl)-penta-(2E,4E)-dienoyl]piperazine] has an inhibition at 10 µM of 100%. Compound `O=C(/C=C/C=C/c1cccc2cccnc12)N1CCN(C(=O)/C=C/C=C/c2cccc3cccnc23)CC1` [Example 32, 1,4-bis[5-(8-quinolyl)penta-(2E,4E)-dienoyl]piperazine] has an inhibition at 10 µM of 85%. `COc1cc(/C=C/C=C/C(=O)N2CCN(C(=O)/C=C/C=C/c3cc(OC)c(OC)c(OC)c3)C(C(=O)O)C2)cc(OC)c1OC` (stereo not shown) [Example 34, 1,4-bis[5-(3,4,5-trimethoxyphenyl)-penta-(2E,4E)-dienoyl]piperazine-2-carboxylic acid] gave an inhibition at 10 µM of 90%. `COc1cc(/C=C/C=C/C(=O)N2CCN(C(=O)/C=C/C=C/c3cc(OC)c(OC)c(OC)c3)C(CN(C)C)C2)cc(OC)c1OC` (stereo not shown) [Example 36, 1,4-bis[5-(3,4,5-trimethoxyphenyl)-penta-(2E,4E)-dienoyl]-2-(N,N-dimethylaminomethyl)-piperazine hydrochloride] gave an inhibition at 10 µM of 100%. With `COc1cc(/C=C/C=C/C(=O)N2CCN(C(=O)/C=C/C=C/c3cc(OC)c(OC)c(OC)c3)c3ccccc32)cc(OC)c1OC` [Example 41, 1,4-bis[5-(3,4,5-trimethoxyphenyl)-penta-(2E,4E)-dienoyl]-1,2,3,4-tetrahydroquinoxaline] the inhibition at 10 µM was 100%. Work on `COc1cc(/C=C/C=C/C(=O)N2CCN(C(=O)/C=C/C=C/c3cc(OC)c(OC)c(OC)c3)c3ncccc32)cc(OC)c1OC` [Example 42, 1,4-bis[5-(3,4,5-trimethoxyphenyl)-penta-(2E,4E)-dienoyl]-pyrido[2,3-b]-1,2,3,4-tetrahydropyrazine] yielded an inhibition at 10 µM of 95%.
